Data published in patent publication US6984510B2, “Vitamin B6-phosphate phosphatase” (DSM IP Assets B.V., priority 2001, dated 2006).
Like-named read-outs stand apart in the source and are kept apart here.

Assays:
VB6PP [1] = target: T1, VB6PP (Sinorhizobium meliloti, UniProt A7BK78); experiment: substrate specificity of the enzyme (phosphate release, malachite green method); assay type: biochemical; conditions: for Relative activity (%): substrate 160 μM final concentration, PNP = 100
Procedure: After incubation for 30 minutes, the reaction mixture was cooled down into an ice bath. Activity was determined in the following two ways. […] One unit of the enzyme activity was defined as-the amount of enzyme synthesizing 1 μmole of vitamin B6 for 30 minutes in the assay system described above.

VB6PP [2] = target: T1, VB6PP; experiment: co-factor requirement of the enzyme to convert VB6P to vitamin B6 (standard enzyme assay); assay type: biochemical; design: Relative activity (%): concentration or dose not given beside the values
[3] = metal salt as co-factor, MnCl2 = 100

T1 sequence (A7BK78 entry or part of it): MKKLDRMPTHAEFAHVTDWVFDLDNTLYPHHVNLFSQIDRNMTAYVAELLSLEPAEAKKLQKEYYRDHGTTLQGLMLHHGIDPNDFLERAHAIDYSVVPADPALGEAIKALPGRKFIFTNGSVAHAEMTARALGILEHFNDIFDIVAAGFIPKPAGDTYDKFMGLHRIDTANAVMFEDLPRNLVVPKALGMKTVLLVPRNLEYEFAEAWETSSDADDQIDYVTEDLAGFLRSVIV

`O=P(O)(O)Oc1cccc2ccccc12` [1-naphthyl phosphate] was tested, and the “Relative activity (%)” value (VB6PP [1]) was 9%.

In the case of `O=C(O)COP(=O)(O)O` [2-phosphoglycolic acid], the “Relative activity (%)” value (VB6PP [1]) is reported as 0%.

`[Cl-].[Cl-].[Co+2]` [CoCl2] was tested, and the “Relative activity (%)” value (VB6PP [2]) was 65% and the “co-factor for conversion of VB6P to vitamin B6” value (“co-factor for conversion of VB6P” for short) (VB6PP [2]) was “could serve as a co-factor”.

`O=C(O)C(O)COP(=O)(O)O` (stereo not drawn) [D(−)3-phosphoglyceric acid] was tested, and the “Relative activity (%)” value (VB6PP [1]) was 0%.

`O=C[C@H](O)[C@@H](O)[C@H](O)[C@H](O)COP(=O)(O)O` [D-glucose 6-phosphate] was tested, and the “Relative activity (%)” value (VB6PP [1]) was 0%.

`[Cl-].[Cl-].[Mg+2]` [MgCl2] was tested, and the “co-factor for conversion of VB6P” value (VB6PP [2]; divalent metal ion) was “could serve as a co-factor” and the “Relative activity (%)” value (VB6PP [2]; [3]) was 88%.

With `[Cl][Mn][Cl]` [MnCl2] the “co-factor for conversion of VB6P” value (VB6PP [2]; divalent metal ion) was “could serve as a co-factor” and the “Relative activity (%)” value (VB6PP [2]; [3]) was 100%.

In the case of `[Cl][Ni][Cl]` [NiCl2], the “co-factor for conversion of VB6P” value (VB6PP [2]; divalent metal ion) is reported as “could serve as a co-factor” and the “Relative activity (%)” value (VB6PP [2]; [3]) is reported as 7%.

In the case of `N[C@@H](COP(=O)(O)O)C(=O)O` [O-phospho-L-serine], the “Relative activity (%)” value (VB6PP [1]) is reported as 0%.

For `Cc1ncc(COP(=O)(O)O)c(C=O)c1O` [PLP, pyridoxal 5′-phosphate], the Substrate specificity (VB6PP [1]) was “active” and the “Relative activity (%)” value (VB6PP [1]) was 40%.

For `Cc1ncc(COP(=O)(O)O)c(CN)c1O` [PMP, pyridoxamine 5′-phosphate], the Substrate specificity (VB6PP [1]) was “active” and the “Relative activity (%)” value (VB6PP [1]) was 0.1%.

In the case of `[Cl][Sn][Cl]` [SnCl2], the “co-factor for conversion of VB6P” value (VB6PP [2]; divalent metal ion) is reported as “could serve as a co-factor” and the “Relative activity (%)” value (VB6PP [2]; [3]) is reported as 11%.

`Nc1ncnc2c1ncn2[C@@H]1O[C@H](COP(=O)(O)OP(=O)(O)O)[C@@H](O)[C@H]1O` [adenosine diphosphate] was tested, and the “Relative activity (%)” value (VB6PP [1]) was 0%.

In the case of `Nc1ncnc2c1ncn2[C@@H]1O[C@H](COP(=O)(O)O)[C@@H](O)[C@H]1O` [adenosine monophosphate], the “Relative activity (%)” value (VB6PP [1]) is reported as 6%.

`Nc1ncnc2c1ncn2[C@@H]1O[C@H](COP(=O)(O)OP(=O)(O)OP(=O)(O)O)[C@@H](O)[C@H]1O` [adenosine triphosphate] was tested, and the “Relative activity (%)” value (VB6PP [1]) was 0%.

In the case of `O=[N+]([O-])c1ccc(OP(=O)(O)O)cc1` [p-nitrophenyl phosphate], the “Relative activity (%)” value (VB6PP [1]) is reported as 29%.
